We go through 6 compounds from US9084424B2, “N-benzyl heterocyclic carboxamides” (BAYER INTELLECTUAL PROPERTY GMBH, priority 2010, dated 2015).

One data set relates to Alternaria solani. Put plainly: In vivo preventive test on Alternaria solani (tomato). As to conditions: preventive spray, 500 ppm of active ingredient, evaluated 7 days after inoculation. An outline of the steps:
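Young tomato plants sprayed with compound formulated in DMF with alkylarylpolyglycolether emulsifier and diluted in water, then inoculated one day later with A. solani spore suspension. Kept 1 day at about 22 °C, 100% humidity, then about 20 °C, 96% humidity. Efficacy scored 7 days post-inoculation, 0% = untreated control, 100% = no disease.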

Another data set concerns Septoria tritici. Nature of the data set: In vivo preventive test on Septoria tritici (wheat). The note with it: preventive spray, 500 ppm of active ingredient, evaluated 21 days after inoculation. The procedure: In Vivo Preventive Test on Septoria tritici (Wheat)
(§1) Solvent: 49 parts by weight of N,N-dimethylacetamide
(§2) Emulsifier: 1 part by weight of alkylaryl polyglycol ether
(§3) To produce a suitable preparation of active compound, 1 part by weight of active compound or active compound combination is mixed with the stated amounts of solvent and emulsifier, and the concentrate is diluted with water to the desired concentration.
(§4) To test for preventive activity, young plants are sprayed with the preparation of active compound or active compound combination at the stated rate of application.
After the spray coating has been dried, the plants are sprayed with a spore suspension of Septoria tritici. The plants remain for 48 hours in an incubation cabinet at approximately 20° C. and a relative atmospheric humidity of approximately 100% and afterwards for 60 hours at approximately 15° C. in a translucent incubation cabinet at a relative atmospheric humidity of approximately 100%.
The plants are placed in the greenhouse at a temperature of approximately 15° C. and a relative atmospheric humidity of approximately 80%.
The test is evaluated 21 days after the inoculation. 0% means an efficacy which corresponds to that of the untreated control, while an efficacy of 100% means that no disease is observed.

Another data set has as its system Pyrenophora teres. Put plainly: In vivo preventive test on Pyrenophora teres (barley). The note with it: preventive spray, 500 ppm of active ingredient, evaluated 7-9 days after inoculation. An outline of the steps: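 Young barley plants were sprayed with compound formulated in N,N-dimethylacetamide/emulsifier and diluted with water, then inoculated with P. teres spores one day later. After 48 h at 22° C., 100% humidity, plants stood in a greenhouse (~20° C., ~80% humidity); efficacy versus untreated control was scored 7-9 days post-inoculation.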

In another data set the test system is Puccinia triticina. Nature of the data set: In vivo preventive test on Puccinia triticina (wheat). The note with it: preventive spray, 500 ppm of active ingredient, evaluated 8 days after inoculation. Here is the method: In Vivo Preventive Test on Puccinia triticina (Wheat)
as §1, §2, §3, §4
After the spray coating has been dried, the plants are sprayed with a spore suspension of Puccinia triticina. The plants remain for 48 hours in an incubation cabinet at approximately 20° C. and a relative atmospheric humidity of approximately 100%.
The plants are placed in the greenhouse at a temperature of approximately 20° C. and a relative atmospheric humidity of approximately 80%.
The test is evaluated 8 days after the inoculation. 0% means an efficacy which corresponds to that of the untreated control, while an efficacy of 100% means that no disease is observed.

A further data set deals with Sphaerotheca fuliginea. Nature of the data set: In vivo preventive test on Sphaerotheca fuliginea (cucumber). As to conditions: preventive spray, 500 ppm of active ingredient, evaluated 7 days after inoculation.
In data set [1] the test system is Blumeria graminis f.sp. hordei. Put plainly: In vivo preventive test on Blumeria graminis (barley). The note with it: preventive spray, 500 ppm of active ingredient, evaluated 7 days after inoculation. Here is the method: In Vivo Preventive Test on Blumeria graminis (Barley)
as §1, §2, §3, §4
After the spray coating has been dried, the plants are dusted with spores of Blumeria graminis f.sp. hordei.
The plants are placed in the greenhouse at a temperature of approximately 18° C. and a relative atmospheric humidity of approximately 80% to promote the development of mildew pustules.
The test is evaluated 7 days after the inoculation. 0% means an efficacy which corresponds to that of the untreated control, while an efficacy of 100% means that no disease is observed.

Data set [2] in a line: log P by HPLC on reversed-phase column (EEC Directive 79/831 Annex V.A8). The note with it: 0.1% aqueous formic acid and acetonitrile, linear gradient 10% to 90% acetonitrile. The class given is physicochemical. An outline of the steps: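 Calibration relied on straight-chain alkan-2-ones with 3 to 16 carbon atoms and known log P, with sample values read by linear interpolation of retention time between two adjacent standards. Separation at 40° C used 0.1% aqueous formic acid with acetonitrile rising linearly from 10% to 90%. UV spectra from 200 nm to 400 nm at chromatographic peak maxima gave lambda-max.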

For a further data set, the system named is Leptosphaeria nodorum. Nature of the data set: In vivo preventive test on Leptosphaeria nodorum (wheat). As to conditions: preventive spray, 500 ppm of active ingredient, evaluated 7-9 days after inoculation. Here is the method:
In Vivo Preventive Test on Leptosphaeria nodorum (Wheat)
as §1, §2
To produce a suitable preparation of active compound, 1 part by weight of active compound is mixed with the stated amounts of solvent and emulsifier, and the concentrate is diluted with water to the desired concentration.
To test for preventive activity, young plants are sprayed with a preparation of active compound at the stated rate of application. One day after this treatment, the plants are inoculated with an aqueous spore suspension of Leptosphaeria nodorum. The plants remain for 48 hours in an incubation cabinet at 22° C. and a relative atmospheric humidity of 100%. Then the plants are placed in a greenhouse at a temperature of approximately 22° C. and a relative atmospheric humidity of approximately 90%.
The test is evaluated 7-9 days after the inoculation. 0% means an efficacy which corresponds to that of the untreated control, while an efficacy of 100% means that no disease is observed.
Under these conditions, good (at least 70%) to excellent protection (at least 95%) is observed at a dose of 500 ppm of active ingredient with the following compounds from table D: […]

Where [3] appears, read: HPLC, reversed-phase C 18, 40° C.
[4] abbreviates: HPLC on reversed-phase column (C 18), 40° C.

On to `CCN(Cc1ccccc1C(C)C)C(=O)c1c(C(F)F)nn(C)c1F` [Example 68], for which the Efficacy in the data set on Alternaria solani is on record as 80%; with Septoria tritici it was 100%; in the data set on Pyrenophora teres it was 100%; in the data set with Puccinia triticina it was 70%; in the data set on Sphaerotheca fuliginea, 100%; in data set [1], 100%. This compound yielded a logP in data set [2] (setting [3]) of 3.42.
For `CC(NC(=O)c1c(C(F)F)nn(C)c1F)c1cccc(Cl)c1Cl` (racemic) [Example 29], the results for the Efficacy in the data set on Alternaria solani, in the data set with Septoria tritici and in the data set on Pyrenophora teres were 94%, 88% and 100%, respectively. Also, the logP in data set [2] (setting [3]) came out at 3.13.
For the compound `CC(C)c1ccccc1CN(C)C(=O)c1c(C(F)F)nn(C)c1F` [Example 72], the Efficacy with Alternaria solani stood at 95%; with Leptosphaeria nodorum it was 78%; in the data set on Septoria tritici, 90%; in the data set with Pyrenophora teres it was 100%; with Sphaerotheca fuliginea, 98%; in data set [1], 100%. The compound also returned a logP in data set [2] (setting [3]) of 3.11.
Take `CC(c1cc(Cl)cc(Cl)c1)N(C)C(=O)c1c(C(F)F)nn(C)c1F` (centres unmarked) [Example 117]: the Efficacy in the data set on Alternaria solani turned out to be 100%; in the data set with Leptosphaeria nodorum, 70%; in the data set on Pyrenophora teres, 100%; in the data set with Puccinia triticina it was 70%; with Sphaerotheca fuliginea, 95%. The compound further gave a logP in data set [2] (setting [4]) of 3.46.
`CC(c1ncc(Cl)cc1Cl)N(C)C(=O)c1c(C(F)F)nn(C)c1F` (centres unmarked) [Example 185]: the Efficacy in the data set with Alternaria solani is given as 100%; in the data set on Leptosphaeria nodorum, 95%; in the data set with Septoria tritici, 100%; with Pyrenophora teres, 95%; with Puccinia triticina it was 90%; in data set [1], 100%. In addition, the logP in data set [2] (setting [4]) was found to be 2.92.
On to `Cn1nc(C(F)F)c(C(=O)N(Cc2c(Cl)cccc2C(F)(F)F)C2CCC2)c1F` [Example 90], for which the Efficacy in the data set with Alternaria solani is reported as 95%; in the data set on Septoria tritici, 100%; in the data set with Pyrenophora teres it was 100%; in the data set with Puccinia triticina, 95%; in the data set with Sphaerotheca fuliginea, 100%; in data set [1], 100%. Besides, the log partition coefficient (logP) in data set [2] (setting [3]) amounted to 3.81.
